The text below walks through data of patent US20230329140A1, “MAC[…]” (Ralco Nutrition Inc., priority 2019, published 2023).

SMILES strings stand for the structures.

The subject of one assay is soybean. In words: Greenhouse soybean pot trial with magnesium lactate. The assay is classed as in vivo. On the procedure: Materials and Methods: One soybean seed was planted in each of the 60 individually marked pots using six different treatments in a randomized complete block design. Plants were grown in the greenhouse under controlled and ideal conditions. All pots were handled and cared for the same exact way throughout their entire growing season. Several measurements were recorded during this trial starting with emergence hours, the number of plants emerged, and unifoliate, 1st trifoliate, 3rd trifoliate, 5th trifoliate, and 7th trifoliate leaf area readings. […] of the measurements that were recorded when this trial was harvested are the number of pods, weight of pods, total soybean seed weight per treatment, and average soybean seed weight per pot.
The magnesium lactate improved the efficiency with which the plant builds chlorophyll when it was applied foliar in sparingly small quantities to soybean plants early in their growth stage.

The next assay relates to corn. Nature of the assay: Greenhouse corn pot trial with magnesium lactate. The assay is classed as in vivo. On the procedure:
The corn trial that was conducted using MgL had one corn seed planted in each of the 60 individually marked pots using six different treatments in a randomized complete block design. Plants were grown in the greenhouse under controlled and ideal conditions. All pots were handled and cared for the same exact way throughout their entire growing season. During this trial the emergence hours, the number of plants emerged, and plant height measurements were taken at specific plant stages and recorded. Several measurements were documented when the trial was harvested which were V10 plant height, V10 chlorophyll readings, stalk diameter, and biomass.

On to `CC(O)C(=O)[O-].CC(O)C(=O)[O-].[Mg+2]` (stereo not drawn) [MgL, magnesium lactate], for which the “efficiency with which the plant builds chlorophyll” value with soybean (applied foliar in sparingly small quantities to soybean plants early in their growth stage) is listed as “improved”. The “soybean yield (average soybean seed weight per pot)” value with soybean (greenhouse pots, FIG. 8) was “positive impact”. Further, the “overall performance in comparison to conventional magnesium compounds, such magnesium sulfate (MgSO)” value with soybean (soybean trial) and in the assay with corn (corn trial) was “performed better overall” in each case. Besides, the corn biomass entry in the assay with corn (greenhouse pots, FIG. 14) was “positive impact”. In addition, in the assay on corn (greenhouse pots, FIGS. 10-14), the “growth and development of corn” value is on record as “positive impact”.
